Experimental data from patent US20260265246A1 (ICAHN SCHOOL OF MEDICINE AT MOUNT SINAI, priority 2021, published 2026).
Read-outs that look alike come from different tables or passages of the source.

Legend:
[1] = molecular target: T1, 5HT2A receptor (Homo sapiens, UniProt P28223); test: cell-based; design: expressed in transfected cells; host or cells: HEK293T cells, transient co-transfection; details: for Emax: HEK-293T
[2] = molecular target: T1, 5HT2A receptor; test: biochemical; format: binding; design: expressed in transfected cells; crude membranes
[3] = molecular target: T1, 5HT2A receptor; test: cell-based; design: expressed in transfected cells; host or cells: HEK293T cells, transient co-transfection; details: for Emax: HEK-293T; remark: listed apart in the source
[4] = 5HT2A β-Arr EC50 (nM), BRET1 beta-arrestin2 recruitment, HEK293T cells
[5] = 5HT2A Ki (nM), secondary radioligand binding, Ki from IC50 by Cheng-Prusoff
[6] = 5HT2A Gq EC50 (nM), BRET2 Gαq dissociation, HEK293T cells
[7] = 5HT2A β-Arr EC50 (nM), BRET1 beta-arrestin2 recruitment, HEK293T
[8] = BRET1 beta-arrestin2 recruitment, HEK293T, normalized to 5-HT
[9] = 5HT2A Ki (nM), secondary binding assay, Cheng-Prusoff
[10] = 5HTA Gq EC50 (nM), BRET2 Gαq dissociation, HEK293T
[11] = BRET2 Gαq dissociation, HEK293T, normalized to 5-HT
[12] = BRET2 Gαq dissociation, HEK293T, read-out: 5HTA Gq EC50
[13] = secondary binding assay, Cheng-Prusoff, read-out: 5HT2A Ki
[14] = BRET1 beta-arrestin2 recruitment, HEK293T cells, normalized to 5-HT, read-out: 5HT2A β-Arr Emax (%)
[15] = BRET2 Gαq dissociation, HEK293T cells, normalized to 5-HT, read-out: 5HT2A Gq Emax (%)
[16] = BRET1 beta-arrestin2 recruitment, HEK293T cells, read-out: 5HT2A β-Arr EC50
[17] = secondary radioligand binding, Ki from IC50 by Cheng-Prusoff, read-out: 5HT2A Ki
[18] = BRET2 Gαq dissociation, HEK293T cells, read-out: 5HT2A Gq EC50
[19] = BRET2 Gαq dissociation, HEK293T, normalized to 5-HT, read-out: 5HTA Gq Emax (%)

T1 sequence (P28223 whole entry): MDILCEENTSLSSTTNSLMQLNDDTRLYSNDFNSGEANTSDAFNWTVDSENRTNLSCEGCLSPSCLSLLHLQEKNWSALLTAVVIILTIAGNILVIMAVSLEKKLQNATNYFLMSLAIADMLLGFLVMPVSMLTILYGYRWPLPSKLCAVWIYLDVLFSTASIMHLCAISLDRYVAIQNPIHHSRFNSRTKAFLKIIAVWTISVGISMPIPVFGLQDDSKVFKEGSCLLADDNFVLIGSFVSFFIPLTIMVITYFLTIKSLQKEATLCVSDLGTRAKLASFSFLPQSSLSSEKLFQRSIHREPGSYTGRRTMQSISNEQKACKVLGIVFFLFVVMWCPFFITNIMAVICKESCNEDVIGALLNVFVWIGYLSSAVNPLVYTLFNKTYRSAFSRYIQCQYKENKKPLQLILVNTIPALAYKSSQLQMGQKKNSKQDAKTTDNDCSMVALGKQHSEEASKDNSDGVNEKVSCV

Row | SMILES | EC50 [1, 4] [nM] | Ki [2, 5] [nM] | EC50 [3, 6] [nM] | Emax [1, 14] [%] | Emax [3, 15] [%] | further results
1 | CN1CCCC(c2c[nH]c3c(Cl)cccc23)C1 (single isomer, unassigned) [Example 113, 7-chloro-3-(1-methylpiperidin-3-yl)-1H-indole] | 1520 | 1430 | 279 |  |  | Emax ([1]; read-out: 5HT2A β-Arr Emax (%), BRET1 beta-arrestin2 recruitment, HEK293T cells, normalized to 5-HT): 62.6%; Emax ([3]; read-out: 5HT2A Gq Emax (%), BRET2 Gαq dissociation, HEK293T cells, normalized to 5-HT): 84.9%
2 | Clc1cccc2c(C34CNCC3C4)n[nH]c12 (single isomer, unassigned) [Example 273, 3-(3-azabicyclo[3.1.0]hexan-1-yl)-7-chloro-1H-indazole] |  |  |  |  |  | EC50 [1, 7]: 1300 nM; 5HT2A β-Arr Emax (%) [1, 8]: 20.73%; Ki [2, 9]: 6300 nM; EC50 [3, 10]: 226 nM; 5HTA Gq Emax (%) [3, 11]: 81.0%
3 | Clc1cccc2c(C34CNCC3C4)n[nH]c12 (single isomer, unassigned) [Example 274, 3-(3-azabicyclo[3.1.0]hexan-1-yl)-7-chloro-1H-indazole] |  |  |  |  |  | EC50 [1, 7]: 733 nM; 5HT2A β-Arr Emax (%) [1, 8]: 50.96%; Ki [2, 9]: 1580 nM; 5HTA Gq Emax (%) [3, 11]: 117.2%; EC50 [3, 12]: 61.5 nM
4 | Clc1cccc2c(C34CNCC3C4)c[nH]c12 (single isomer, unassigned) [Example 277, 3-(3-azabicyclo[3.1.0]hexan-1-yl)-7-chloro-1H-indole] |  |  |  |  |  | EC50 [1, 7]: 212 nM; Emax ([1]; BRET1 beta-arrestin2 recruitment, HEK293T, normalized to 5-HT, read-out: 5HT2A β-Arr Emax (%)): 25.4%; Ki [2, 13]: 80.5 nM; 5HTA Gq Emax (%) [3, 11]: 86.5%; EC50 [3, 12]: 83.8 nM
5 | COc1cnc2[nH]cc(C3=CCCNC3)c2c1 [Example 2, 5-methoxy-3-(1,2,5,6-tetrahydropyridin-3-yl)-1H-pyrrolo[2,3-b]pyridine] | 1040 | 294 | 135 | 61.6 | 73.7 | 
6 | Clc1cnc2[nH]cc(C3=CCCNC3)c2c1 [Example 3, 5-chloro-3-(1,2,5,6-tetrahydropyridin-3-yl)-1H-pyrrolo[2,3-b]pyridine] | 229 | 143 | 29.4 | 43.8 | 82 | 
7 | COc1cnc2[nH]cc(C3=CCCN(C)C3)c2c1 [Example 6, 5-methoxy-3-(1-methyl-1,2,5,6-tetrahydropyridin-3-yl)-1H-pyrrolo[2,3-b]pyridine] | 792 | 695 | 44.1 | 33.4 | 65.9 | 
8 | CN1CCC=C(c2c[nH]c3ncc(Cl)cc23)C1 [Example 7, 5-chloro-3-(1-methyl-1,2,5,6-tetrahydropyridin-3-yl)-1H-pyrrolo[2,3-b]pyridine] | 18.7 | 209 | 56.9 | 20.7 | 73.4 | 
9 | CN1CCC=C(c2c[nH]c3ncc(-c4ccccc4)cc23)C1 [Example 8, 3-(1-methyl-1,2,5,6-tetrahydropyridin-3-yl)-5-phenyl-1H-pyrrolo[2,3-b]pyridine] | 811 | 156 | 67 | 58.3 | 95.5 | 
10 | Cc1ccnc2[nH]cc(C3=CCCNC3)c12 [Example 9, 4-methyl-3-(1,2,5,6-tetrahydropyridin-3-yl)-1H-pyrrolo[2,3-b]pyridine] | 749 | 8510 | 489 | 72.8 | 74.2 | 
11 | Clc1ccnc2[nH]cc(C3=CCCNC3)c12 [Example 11, 4-chloro-3-(1,2,5,6-tetrahydropyridin-3-yl)-1H-pyrrolo[2,3-b]pyridine] | 904 | 273 | 79.9 | 43.7 | 84.7 | 
12 | Cc1ccnc2[nH]cc(C3=CCCN(C)C3)c12 [Example 13, 4-methyl-3-(1-methyl-1,2,5,6-tetrahydropyridin-3-yl)-1H-pyrrolo[2,3-b]pyridine] |  |  |  | 38.9 | 68.7 | EC50 [1, 16]: 765 nM; Ki [2, 17]: 63.5 nM; EC50 [3, 18]: 106 nM
13 | COc1ccnc2[nH]cc(C3=CCCN(C)C3)c12 [Example 14, 4-methoxy-3-(1-methyl-1,2,5,6-tetrahydropyridin-3-yl)-1H-pyrrolo[2,3-b]pyridine] |  |  |  | 32.2 | 67.1 | EC50 [1, 16]: 74.1 nM; Ki [2, 17]: 43 nM; EC50 [3, 18]: 72.7 nM
14 | CN1CCC=C(c2c[nH]c3nccc(Cl)c23)C1 [Example 15, 4-chloro-3-(1-methyl-1,2,5,6-tetrahydropyridin-3-yl)-1H-pyrrolo[2,3-b]pyridine] | 683 | 465 | 23.5 | 31.5 | 68.8 | 
15 | CN1CCC=C(c2c[nH]c3nccc(-c4ccccc4)c23)C1 [Example 16, 3-(1-methyl-1,2,5,6-tetrahydropyridin-3-yl)-4-phenyl-1H-pyrrolo[2,3-b]pyridine] | 2140 | 164 |  | 49.6 |  | 
16 | Cc1cccc2[nH]cc(C3=CCCNC3)c12 [Example 17, 4-methyl-3-(1,2,5,6-tetrahydropyridin-3-yl)-1H-indole] |  |  |  | 42 | 85.7 | EC50 [1, 16]: 147 nM; Ki [2, 17]: 11.5 nM; EC50 [3, 18]: 22 nM
17 | COc1cccc2[nH]cc(C3=CCCNC3)c12 [Example 18, 4-methoxy-3-(1,2,5,6-tetrahydropyridin-3-yl)-1H-indole] |  |  |  | 51.8 | 96.1 | EC50 [1, 16]: 71.2 nM; Ki [2, 17]: 50.5 nM; EC50 [3, 18]: 3.9 nM
18 | Cc1cccc2[nH]cc(C3=CCCN(C)C3)c12 [Example 19, 4-methyl-3-(1-methyl-1,2,5,6-tetrahydropyridin-3-yl)-1H-indole] | 102 | 136 |  | 40.4 | 75.9 | EC50 [3, 18]: 9 nM
19 | COc1cccc2[nH]cc(C3=CCCN(C)C3)c12 [Example 20, 4-methoxy-3-(1-methyl-1,2,5,6-tetrahydropyridin-3-yl)-1H-indole] |  |  |  | 47.7 | 91 | EC50 [1, 16]: 61.8 nM; Ki [2, 17]: 60 nM; EC50 [3, 18]: 3 nM
20 | CN1CCC=C(c2c[nH]c3cccc(-c4ccccc4)c23)C1 [Example 21, 3-(1-methyl-1,2,5,6-tetrahydropyridin-3-yl)-4-phenyl-1H-indole] | 358 | 14 | 874 | 15.1 | 59.6 | 
21 | Clc1ccc2[nH]cc(C3=CCCNC3)c2c1 [Example 22, 5-chloro-3-(1,2,5,6-tetrahydropyridin-3-yl)-1H-indole] |  |  |  | 77.3 | 102 | EC50 [1, 16]: 78.4 nM; Ki [2, 17]: 44.3 nM; EC50 [3, 18]: 7.2 nM
22 | CC(C)c1ccc2[nH]cc(C3=CCCNC3)c2c1 [Example 23, 5-isopropyl-3-(1,2,5,6-tetrahydropyridin-3-yl)-1H-indole] |  |  |  | 31.4 | 58.8 | EC50 [1, 16]: 735 nM; Ki [2, 17]: 98.6 nM; EC50 [3, 18]: 65.7 nM
23 | Clc1ccc2c(C3=CCCNC3)c[nH]c2c1 [Example 31, 6-chloro-3-(1,2,5,6-tetrahydropyridin-3-yl)-1H-indole] | 1500 | 160 | 106 | 112 | 93 | 
24 | Fc1cccc2c(C3CNC3)c[nH]c12 [Example 259, 3-(azetidin-3-yl)-7-fluoro-1H-indole] |  |  |  |  |  | Ki [2, 9]: 168 nM; EC50 [3, 10]: 944 nM; Emax ([3]; read-out: 5HTA Gq Emax (%), BRET2 Gαq dissociation, HEK293T, normalized to 5-HT): 81.6%
25 | CN1CC(c2c[nH]c3c(F)cccc23)C1 [Example 260, 7-fluoro-3-(1-methylazetidin-3-yl)-1H-indole] |  |  |  |  |  | Ki [2, 9]: 357 nM; EC50 [3, 10]: 422 nM; Emax [3, 19]: 63.1%
26 | CC(C)c1cccc2c(C3CNC3)c[nH]c12 [Example 262, 3-(azetidin-3-yl)-7-isopropyl-1H-indole] |  |  |  |  |  | Ki [2, 9]: 1910 nM; EC50 [3, 10]: 316 nM; Emax [3, 19]: 114%
27 | Cc1cc(Cl)cc2c(C3CNC3)c[nH]c12 [Example 263, 3-(azetidin-3-yl)-5-chloro-7-methyl-1H-indole] |  |  |  |  |  | Ki [2, 9]: 244 nM; EC50 [3, 10]: 127 nM; Emax [3, 19]: 63.7%
28 | Fc1cc(F)c2[nH]cc(C3CNC3)c2c1 [Example 264, 3-(azetidin-3-yl)-5,7-difluoro-1H-indole] |  |  |  |  |  | Ki [2, 13]: 98.8 nM; EC50 [3, 10]: 165 nM; Emax [3, 19]: 44.7%
29 | c1cnc2[nH]cc(C34CNCCC3C4)c2c1 (centres unmarked) [Example 268, 3-(3-azabicyclo[4.1.0]heptan-1-yl)-1H-pyrrolo[2,3-b]pyridine] |  |  |  |  |  | Ki [2, 9]: 5940 nM; EC50 [3, 10]: 740 nM; Emax [3, 19]: 98%
30 | Cc1cccc2c(C34CNCCC3C4)c[nH]c12 (centres unmarked) [Example 271, 3-(3-azabicyclo[4.1.0]heptan-1-yl)-7-methyl-1H-indole] |  |  |  |  |  | Ki [2, 9]: 3150 nM; EC50 [3, 10]: 327 nM; Emax [3, 19]: 80.1%
